This note sets out measurements from ChEMBL document CHEMBL1201862, “PubChem BioAssay data set” (2004).

Each structure is given as a SMILES string.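 These data come from cells grown in 96-well plates and exposed to compound for 48 hours at five concentrations. GI50: concentration for 50% inhibition of growth.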 Active and inactive are the calls of the source. Cut-off read from the data, not from the text of the source: active = GI50 up to about 1.1 µM and inactive = higher.

Among the test systems are A549; HCT-15; HL-60; HOP-62; LOX IMVI; MOLT-4; Malme-3M; NCI-H23; OVCAR-4; OVCAR-5; OVCAR-8; RXF 393; SF-295; SF-539; SK-MEL-2; SNB-75; T47D; TK-10; U-251; UACC-257.
What all share (experiment): NCI tumour cell line growth inhibition, 48 h

For `CCOC(=O)C1=NN(c2ccc([N+](=O)[O-])cc2)[C@@]2(C)C[C@]3(c4ccccc4)N(c4ccc([N+](=O)[O-])cc4)N=C(C(=O)OCC)N3c3ccccc3N12`, the GI50 was > 100 µM (inactive) in the assay with A549; > 100 µM in the assay with HCT-15; > 100 µM (inactive) in the assay on HL-60; > 100 µM (inactive) in the assay with HOP-62; > 100 µM (inactive) in the assay with LOX IMVI; > 100 µM (inactive) in the assay with MOLT-4. Moreover, the GI50 with Malme-3M, in the assay on NCI-H23, in the assay on OVCAR-4, in the assay with OVCAR-5, with OVCAR-8 and in the assay with RXF 393 was > 100 µM (inactive) each time. Further, the GI50 in the assay with SF-295, with SF-539, in the assay with SK-MEL-2, in the assay with SNB-75, in the assay on T47D and in the assay with TK-10 was > 100 µM (inactive) throughout. Also, the GI50 in the assay with U-251 and in the assay on UACC-257 was > 100 µM (inactive) throughout.

As to `CC(=O)NC1C(OCc2ccccc2)OC(CO)C(O)C1OCC(=O)NC(C(=O)NC(CCC(=O)NCCCCCC(=O)Nc1ccc2c(c1)CN1C(=O)c3ccccc3C1=N2)C(N)=O)C(C)C` (stereo not given), the GI50 in the assay with A549 was 41.4 µM (inactive); in the assay with HCT-15, 52.2 µM; in the assay with HL-60, > 100 µM (inactive); with HOP-62, 20.3 µM (inactive); with LOX IMVI, 34.4 µM (inactive); with MOLT-4, > 100 µM (inactive). Also, the GI50 in the assay on Malme-3M was 23.8 µM (inactive); in the assay with NCI-H23, 35.3 µM (inactive); in the assay with OVCAR-4, 21.9 µM (inactive); in the assay on OVCAR-5 it was > 100 µM (inactive); in the assay with OVCAR-8, 26.4 µM (inactive); in the assay with RXF 393, 21.8 µM (inactive). Further, the GI50 was 24.7 µM (inactive) in the assay on SF-295; 19.1 µM (inactive) with SF-539; 27.1 µM (inactive) in the assay on SK-MEL-2; 22 µM (inactive) in the assay with SNB-75; 22.3 µM (inactive) with T47D; 18.3 µM (inactive) in the assay with TK-10. In addition, the GI50 in the assay with U-251 is 18.8 µM (inactive); with UACC-257, 25.9 µM (inactive).

Regarding `CN(C)CCCN1c2ccc(O)cc2Sc2ccc(Cl)cc21` [7-HYDROXYCHLORPROMAZINE], the GI50 in the assay on A549 is 13.5 µM (inactive); with HCT-15, 14.2 µM; in the assay on HL-60, 13.9 µM (inactive); with HOP-62 it was 15.1 µM (inactive); with LOX IMVI, 6.71 µM (inactive); in the assay with MOLT-4, 3.18 µM (inactive). The GI50 in the assay on Malme-3M is 10.3 µM (inactive); with NCI-H23, 17.7 µM (inactive); in the assay on OVCAR-4, 12.5 µM (inactive); in the assay with OVCAR-5, 15.1 µM (inactive); with OVCAR-8, 16 µM (inactive); in the assay on RXF 393, 16.9 µM (inactive). Besides, the GI50 was 15.3 µM (inactive) in the assay with SF-295; 14.6 µM (inactive) in the assay on SF-539; 6.04 µM (inactive) with SK-MEL-2; 8.63 µM (inactive) in the assay with SNB-75; 21 µM (inactive) in the assay with T47D; 12.3 µM (inactive) with TK-10. Moreover, the GI50 in the assay on U-251 is 9.86 µM (inactive); with UACC-257, 1.71 µM (inactive).

For `Cc1c(F)c(N)c2c(=O)cc(-c3ccc(N)c(F)c3)oc2c1F` [AMINOFLAVONE], the GI50 is 2.09 µM (inactive) in the assay with A549; 33.3 µM with HCT-15; 44.8 µM (inactive) with HL-60; 12.7 µM (inactive) with HOP-62; 21.3 µM (inactive) with LOX IMVI; 46.9 µM (inactive) in the assay on MOLT-4. Besides, the GI50 with Malme-3M is 33.5 µM (inactive); in the assay on NCI-H23, 19.6 µM (inactive); in the assay on OVCAR-4, 18.8 µM (inactive); in the assay on OVCAR-5, 0.15 µM (active); in the assay with OVCAR-8, 19.6 µM (inactive); in the assay with RXF 393, 17 µM (inactive). Further, the GI50 in the assay with SF-295 was 15.6 µM (inactive); in the assay with SF-539, 14.9 µM (inactive); in the assay with SK-MEL-2, 40.6 µM (inactive); in the assay with SNB-75 it was 26.7 µM (inactive); with T47D, 0.313 µM (active); in the assay with TK-10, 0.258 µM (active). Also, the GI50 in the assay on U-251 is 4.2 µM (inactive); with UACC-257, 0.298 µM (active).

In the case of `O=C1OC2c3ccccc3C(=O)C2(c2ccccc2)N1c1ccccc1` (stereo not given), the GI50 in the assay on A549 was > 200 µM (inactive); in the assay on HCT-15, > 200 µM; in the assay on HL-60, 29.9 µM (inactive); with HOP-62, > 200 µM (inactive); in the assay with LOX IMVI it was > 200 µM (inactive); with MOLT-4, 186 µM (inactive). In addition, the GI50 in the assay on Malme-3M, in the assay on NCI-H23, with OVCAR-4, in the assay on OVCAR-5, in the assay with OVCAR-8 and in the assay on RXF 393 was > 200 µM (inactive) throughout. Moreover, the GI50 with SF-295 was > 200 µM (inactive); with SF-539 it was > 200 µM (inactive); with SK-MEL-2, > 200 µM (inactive); in the assay with SNB-75, 45.4 µM (inactive); with T47D, 174 µM (inactive); with TK-10 it was > 200 µM (inactive). In addition, the GI50 in the assay with U-251 and with UACC-257 was > 200 µM (inactive) in each case.

Consider `C[N+]1(CCCCN2c3ccccc3Sc3cc(N=[N+]=[N-])ccc32)CCN(C(=O)CCNC(=O)Cc2ccc(C(=O)c3ccccc3)cc2)CC1`, for which the GI50 with A549 was 27.4 µM (inactive); in the assay with HCT-15, 22.8 µM; in the assay on HL-60 it was 9.1 µM (inactive); in the assay with HOP-62, 22.6 µM (inactive); with LOX IMVI, 20.3 µM (inactive); with MOLT-4 it was 23.1 µM (inactive). Moreover, the GI50 is 18.7 µM (inactive) in the assay on Malme-3M; 26.4 µM (inactive) with NCI-H23; 21.2 µM (inactive) with OVCAR-4; 21.7 µM (inactive) in the assay on OVCAR-5; 34.7 µM (inactive) in the assay on OVCAR-8; 31.5 µM (inactive) with RXF 393. For the same molecule, the GI50 is 21.7 µM (inactive) in the assay on SF-295; 32.9 µM (inactive) in the assay with SF-539; 29.4 µM (inactive) in the assay with SK-MEL-2; 20.3 µM (inactive) with SNB-75; 21.3 µM (inactive) in the assay on T47D; 11.4 µM (inactive) with TK-10. In addition, the results for the GI50 in the assay with U-251 and in the assay with UACC-257 were 21.6 µM (inactive) and 31.3 µM (inactive), respectively.
